Assays:
[1] = general statement on statins; cited from earlier work
[2] = test system: CTGF in M12 prostate cancer cells; experiment: Suppression of endogenous CTGF by statins in M12 prostate cancer cells; format: cell-based, human; details: 1 μM, four days, FIG. 3A
Excerpt: The effect of statins on the TGF-β- and CTGF-induced EMT in prostate cancer cells was further tested. Several stains are available with different pharmacokinetics and biotransformation rates. […] The hydrophilic statins are absorbed preferentially by the liver, where they inhibit production of cholesterol. More lipophilic statins are readily distributed to sites beyond the liver, where they inhibit intracellular synthesis of cholesterol. These different pharmacokinetic properties of statins may greatly influence effectiveness against advanced prostate cancer in vivo.

[3] = test system: CTGF in MDA 231 breast cancer cells; experiment: Suppression of endogenous CTGF by statins in MDA 231 breast cancer cells; format: cell-based, human; details: 1 μM, four days, FIG. 3B
[4] = test system: radiation-induced CTGF in M12 prostate cancer cells; experiment: Radiation-induced CTGF expression in M12 prostate cancer cells; format: cell-based, human; details: 1 μM, four days, FIG. 9A
Excerpt: In an effort to determine the mechanism of radiation-induced adverse effects, such as radio-resistance and increased potential of metastasis in human cancer, M12 prostate cancer cells and BEAS-2B-CSC lung cancer cells were exposed to increasing amounts of radiation, ranging from 0 to 10 Grays (Gy). To detect protein expression for CTGF and CTGF-regulated protein fibronectin, M12 and BEAS-2B-CSC cells were harvested 3 days after irradiation, and culture media (CM) and cell lysates (CL) were separated by SDS-PAGE. Western immunoblotting was performed with antibodies specific for CTGF, fibronectin, and α-tubulin. […] As a control for protein loading, α-tubulin expression was also determined.
The ability of statins to inhibit radiation-induced CTGF expression was assessed in M12 prostate cancer cells and BEAS-2B-CSC lung cancer cells.

[5] = test system: CTGF and fibronectin in normal immortalized human lung fibroblasts; experiment: Basal and TGF-β1-induced CTGF and fibronectin expression in stromal fibroblasts; format: cell-based
[6] = test system: EMT markers in M12 prostate cancer cells; experiment: CTGF-induced (AdCTGF) EMT marker expression in M12 prostate cancer cells, RT-PCR and Western immunoblot; format: cell-based, human
Excerpt: In order to identify direct effect of CTGF on EMT induction in human cancer, an adenoviral expression vector was used. M12 (FIGS. 5 A-B) and M2182 (FIGS. 5 C-D) prostate cancer cells were infected with either an empty adenoviral constructs or an adenoviral vector expressing CTGF (AdCTGF) for either 18 hrs or 2 days to collect total RNAs for RT-PCR (FIGS. 5 A and C) and proteins for Western immunoblot analysis (FIGS. 5 B and D), respectively.
M12 (FIGS. 6 A-B) and M2182 (FIGS. 6 C-D) prostate cancer cells were infected with either an empty adenoviral construct (ADEV) or an adenoviral vector expressing CTGF (AdCTGF) for either 18 hrs or 2 days to collect total RNAs for RT-PCR (FIGS. 5 A and C) or proteins for Western immunoblot analysis (FIGS. 5 B and D), respectively.

[7] = stromal cells treated with TGF-β1 0 ng/ml to 25 ng/ml, 3 days, Western immunoblot, FIG. 4A

Compound | solubility (fat soluble or water soluble) [1] | suppression of CTGF [2] | suppression of CTGF [3] | suppression of radiation-induced CTGF expression [4] | also measured
CC(C)n1c(/C=C/[C@@H](O)C[C@@H](O)CC(=O)O)c(-c2ccc(F)cc2)c2ccccc21 (relative stereo) [fluvastatin, (3R,5S,6E)-rel-7-[3-(4-fluorophenyl)-1-(1-methylethyl)-1H-indol-2-yl]-3,5--dihydroxy-6-heptenoic acid] | more fat soluble | – | – | – | –
CC[C@H](C)C(=O)O[C@H]1C[C@@H](C)C=C2C=C[C@H](C)[C@H](CC[C@@H]3C[C@@H](O)CC(=O)O3)[C@H]21 [lovastatin, 2(S)-2-methyl-butanoic acid (1S,3R,7S,8S,8aR)-1,2,3,7,8,8a-hexahydro-3,7-dimethyl-8-[2-[(2R,4R)-tetrahydro-4-hydroxy-6-oxo-2H-pyran-2-yl]ethyl]-1-na-phthalenyl ester] | more fat soluble | significant suppression | significant suppression | significant suppression | –
CCC(C)C(=O)OC1CCC=C2C=C[C@H](C)[C@H](CC[C@@H]3CC(O)CC(=O)O3)[C@H]21 (stereo partly drawn) [mevastatin, ((1S,7S,8S,8aR)-8-{2-[(2R,4R)-4-hydroxy-6-oxotetrahydro-2H-pyran-2-yl]ethyl}-7-methyl-1,2,3,7,8,8a-hexahydronaphthalen-1-yl (2S)-2-methylbutanoate);] | more water soluble | – | – | – | –
CC[C@H](C)C(=O)O[C@H]1C[C@H](O)C=C2C=C[C@H](C)[C@H](CC[C@@H](O)C[C@@H](O)CC(=O)O)[C@H]21 [pravastatin] | more water soluble | significant suppression | significant suppression | significant suppression | –
CCC(C)(C)C(=O)O[C@H]1C[C@@H](C)C=C2C=C[C@H](C)[C@H](CC[C@@H]3C[C@@H](O)CC(=O)O3)[C@H]21 [simvastatin, 2,2-dimethyl-butanoic acid (1S,3R,7S,8S,8aR)-1,2,3,7,8,8a-hexahydro-3,7-dimethyl-8-[2-[(2R,4R)-tetrahydro-4-hydroxy-6-oxo-2H-pyran-2-yl]ethyl]-1-naphthalenyl ester] | – | significant suppression | significant suppression | – | basal CTGF expression ([5]; stromal fibroblasts, simvastatin 0.1 μM to 2.0 μM, 20 hours, semi-quantitative RT-PCR, FIG. 4B): suppression; epithelial marker E-cadherin expression ([6]; M12 cells, AdCTGF, 5 μM simvastatin, mRNA level and protein level, FIGS. 6 A-B): increase; adenoviral transduced IGFBP-rP2/CTGF expression ([6]; prostate cancer cells, simvastatin at concentrations, 2 μM, 4 μM, 5 μM): did not affect
TGF-β1: transforming growth factor beta, potent inducer of CTGF, used to treat stromal fibroblasts | – | – | – | – | production of CTGF ([5]; TGF-β1 at 10 ng/ml, FIG. 4A): robust production; expression of CTGF [5, 7]: significantly increased; expression of fibronectin [5, 7]: significantly increased

— patent US20120156216A1, “Methods and Compositions for Treatment of Tumor Metastasis” (priority 2009, published 2012)
